# Laboratory results: patent US11154529B2, “Phosphaplatin liquid formulations” (Phosplatin Therapeutics Inc., priority 2016, dated 2021)
# Assay: Ready-to-use formulation stability at 25° C./60% RH, 5 mg/mL (R,R)-pyrodach-2 in 10 mM Sodium Phosphate Buffer, 5.2 mM Sodium Pyrophosphate at pH 7.5, 10 mL vials
# Assay type: physicochemical
# Description: Stability data on the formulation with added pyrophosphate at 40° C./75% RH in Table 12 is even more dramatic. […] [table] [table] • Transfer 1419.6 mg±14.0 mg of dibasic sodium phosphate anhydrous to a 1-L volumetric flask. • Transfer 2298.5 mg±23.0 mg of tetrasodium pyrophosphate decahydrate into the same 1-L volumetric flask. • Fill flask to approximately 75% volume with sterile water for injection, swirl as needed to dissolve all solids. • Volumetrically transfer 8.0 mL of 1N NaOH to flask. • Dilute flask to volume with water and mix well. • Record the pH of final solution. This is the vehicle. • Determine the tare weight of a 500-mL compounding vessel with stir bar. • Transfer 2500.1 mg±25.0 mg of (R,R)-pyrodach-2 to the vessel. • Transfer 450.0 g±0.1 g of the vehicle to the vessel and stir to dissolve solids. • Determine the initial pH of the solution. • Slowly adjust the pH of the solution to 7.5±0.1 by adding additional N NaOH. • Determine the gross solution weight and dilute the solution weight to 500.0 g±0.1 g by adding additional vehicle into the compounding vessel. Density=1.00 g/mL. • Stir the final solution for an additional 5 minutes. • Determine the pH of final solution. • Pass the entire solution through a 0.22 μm PVDF Stericup filter into a sterile collection vessel. • Conduct the following in a laminar flow hood; fill 10-mL sterile tubing vials with 10 mL of solution, stoppered with a sterile Flurotec stopper, and crimp-capped with a flip-off seal. • Place vials in 40° C./75% RH and 25° C./60% RH stability chambers. HPLC method in Example 3 to monitor purity and impurities.
smiles,measurement,setting,value
"O=P1(O)OP(=O)(O)[O][Pt]2([NH][C@@H]3CCCC[C@H]3[NH]2)[O]1 (stereo partly drawn) [(R,R)-pyrodach-2, (R,R)-trans-1,2-cyclohexanediamine-(dihydrogenpyrophosphato)platinum(II)]",Individual Related Substances RRT 0.28-0.29,1 Month,0.10%
same,Individual Related Substances RRT 0.50-0.51,1 Month,0.08%
same,Individual Related Substances RRT 0.58,1 Month,0.39%
same,Individual Related Substances RRT 0.73-0.74,1 Month,0.71%
same,Potency (Assay),1 Month,102.2%
same,Total Related Substances,1 Month,1.3%
same,pH,1 Month,7.6
same,Individual Related Substances RRT 0.28-0.29,2 Months,0.20%
same,Individual Related Substances RRT 0.50-0.51,2 Months,0.15%
same,Individual Related Substances RRT 0.58,2 Months,0.38%
same,Individual Related Substances RRT 0.73-0.74,2 Months,0.92%
same,Potency (Assay),2 Months,103.8%
same,Total Related Substances,2 Months,1.6%
same,pH,2 Months,7.6
same,Individual Related Substances RRT 0.28-0.29,3 Months,0.17%
same,Individual Related Substances RRT 0.50-0.51,3 Months,0.11%
same,Individual Related Substances RRT 0.58,3 Months,0.43%
same,Individual Related Substances RRT 0.73-0.74,3 Months,0.88%
same,Potency (Assay),3 Months,101.4%
same,Total Related Substances,3 Months,1.6%
same,pH,3 Months,7.6
same,Individual Related Substances RRT 0.28-0.29,6 Months,0.17%
same,Individual Related Substances RRT 0.50-0.51,6 Months,0.12%
same,Individual Related Substances RRT 0.58,6 Months,0.44%
same,Individual Related Substances RRT 0.73-0.74,6 Months,0.81%
same,Potency (Assay),6 Months,102.8%
same,Total Related Substances,6 Months,1.5%
same,pH,6 Months,7.6
same,Individual Related Substances RRT 0.28-0.29,9 Months,0.18%
same,Individual Related Substances RRT 0.50-0.51,9 Months,0.21%
same,Individual Related Substances RRT 0.58,9 Months,0.42%
same,Individual Related Substances RRT 0.73-0.74,9 Months,0.27%
same,Potency (Assay),9 Months,101.7%
same,Total Related Substances,9 Months,1.20%
same,pH,9 Months,7.6
same,Individual Related Substances PT-112 Dimer,Initial,0.16%
same,Individual Related Substances RRT 0.28-0.29,Initial,0.14%
same,Individual Related Substances RRT 0.50-0.51,Initial,0.08%
same,Individual Related Substances RRT 0.58,Initial,0.34%
same,Individual Related Substances RRT 0.73-0.74,Initial,0.83%
same,Individual Related Substances RRT 0.92,Initial,0.05%
same,Individual Related Substances RRT 1.57,Initial,0.12%
same,Potency (Assay),Initial,102.0%
same,Total Related Substances,Initial,1.7%
same,pH,Initial,7.5
